From article PMC6759747 come the findings set out here.

A short description of the data set: on-resin side-chain-to-N-terminus lactamisation (lanthionine D-half alpha-COOH + N-terminal amine); PyAOP 5 eq, HOAt 5 eq, DIPEA 10 eq, after TBAF (Teoc/TMSE) and piperidine (Fmoc) removal; NovaSyn TGT low-loading resin. The conditions noted are these: the molecule shown is the open-chain precursor, DMF, 60.0 °C.

With `*OC(=O)[C@H](CCCCNC(=O)OC(C)(C)C)NC(=O)[C@H](CS[C@@H](C)[C@@H](N)C(=O)O)NC(=O)CNC(=O)[C@@H]1CCCN1`, the ring closure, overall yield (13-membered ring, 5.1 h) was 37%.
`*OC(=O)[C@H](C)NC(=O)[C@H](CSC[C@@H](N)C(=O)O)NC(=O)[C@H](CC(C)C)NC(=O)[C@H](C)NC(=O)[C@@H](N)CC(C)C`: the ring closure, overall yield (16-membered ring, 3.1 h) turned out to be 3%.
In the case of `*OC(=O)[C@@H](NC(=O)[C@H](CSC[C@@H](N)C(=O)O)NC(=O)CNC(=O)[C@@H](N)CC(C)C)[C@@H](C)OC(C)(C)C`, the ring closure, overall yield (13-membered ring, 3.1 h) came to 34%.
As to `*OC(=O)[C@H](C)NC(=O)[C@H](CSC[C@@H](N)C(=O)O)NC(=O)[C@H](CC(C)C)NC(=O)[C@H](CSC(c1ccccc1)(c1ccccc1)c1ccccc1)NC(=O)[C@@H](N)[C@@H](C)CC`, the ring closure, overall yield (16-membered ring, 3.1 h) is 11%.
With `*OC(=O)[C@H](CCCCNC(=O)OC(C)(C)C)NC(=O)[C@H](CSC[C@@H](N)C(=O)O)NC(=O)CNC(=O)[C@@H]1CCCN1`, the ring closure, overall yield (13-membered ring, 3.1 h) came out at 7%.
As to `*OC(=O)[C@H](C)NC(=O)[C@H](CSC[C@@H](N)C(=O)O)NC(=O)[C@H](CC(C)C)NC(=O)[C@H](CSC(c1ccccc1)(c1ccccc1)c1ccccc1)NC(=O)[C@@H](N)CC(C)C`, the ring closure, overall yield (16-membered ring, 3.1 h) came to 15%.
On the same count and under the same terms, the value for `*OC(=O)[C@H](C)NC(=O)[C@H](CSC[C@@H](N)C(=O)O)NC(=O)[C@H](CC(C)C)NC(=O)[C@H](COC(C)(C)C)NC(=O)[C@@H](N)CC(C)C` was 5%.
